Results published in patent US8753604B2, “Methods and compositions for synaphically-targeted treatment for cancer” (Sanford-Burnham Medical Research Institute, priority 2008, dated 2014).
One block for each compound: values may come before it. Bridges are numbered along the chain shown (N, C = ends). Where no end group is shown, it is not given here. The star is where a group is joined. FITC = O=C1OC2(c3ccc(O)cc3Oc3cc(O)ccc32)c2ccc(NC(=S)*)cc21

Assays:
MDA-MB-435 cells = assay: FACS analysis of FITC-peptide binding to siRNA-transfected MDA-MB-435 cells; type: cell-based, human; conditions: 10 μM FITC peptide, 1 h at 4° C.
Protocol: MDA-MB-435 cells were transiently transfected with gC1qR/p32-specific or control siRNAs. […] The amount of fluorescence in living cells was analyzed by FACS. Cells incubated in the absence of peptide served as FITC negative control. Compared to control siRNA transfected cells, down-regulation of gC1qR/p32 expression (in the presence of gC1qR/p32 siRNA) caused a shift in the peak of Lyp-1 fluorescence but not control peptide fluorescence.
Cultured cells were detached with cell enzyme-free dissociation buffer (Gibco/Invitrogen) and collected in PBS containing 1% BSA (PBSB). Single cells suspensions from tumors were obtained as indicated above. For FACS staining, 2.5×10^5 cells were resuspended in 100 μl of PBSB and incubated with polyclonal anti-full-length gC1qR/p32 or rabbit IgG (20 μg/ml) in PBSB for 30 min at 4° C. The cells were washed in PBSB and stained with goat anti rabbit Alexa 488 (2.5 μg/ml) for 30 min at 4° C. For FACS analysis of bound FITC-peptides, cultured cells were detached as above and incubated with 10 μM of FITC-peptides in 10% FCS/DMEM for 1 hour at 4° C. After washes with PBSB, the cells were resuspended in PBS containing 2 μg/ml of propidium iodide (PI, Molecular Probes/Invitrogen) to distinguish between live and dead cells, and 10,000 cells per sample were analyzed using a BD Biosciences FACSort.

mitochondrial membranes = conditions: concentration of 10 μM; cited from earlier work
tumors [1] = assay: In vivo peptide and phage homing (iRGD); conditions: peptides 2 hrs, phage 15 min circulation
Protocol: (§1) The peptides were allowed to circulate for 2 hrs and organs were collected and viewed under UV light (left panel) or white light (right panel). […] Fluorescence in each tissue was quantified with Image J software. Statistical analysis was performed with Student's t-test. […] The circulation time for the free peptides was 2 hrs, 15 min for the peptide-displaying phage, and 3 hrs for the peptide-coupled micelles. […] Representative fields from multiple sections of each of three tumors are shown.
(§2) Synthetic peptides labeled with fluorescein (Karmali et al. (2008)) (approximately 200 μg) were intravenously injected into tumor-bearing mice and allowed to circulate for 15 min to 2 hrs. Tissues were collected and observed under UV light (Illumatool Bright Light System LT-9900) or processed for immunofluorescence (Karmali et al. (2008)). To assess phage homing (Zhang et al., (2006)), 10^9 pfu of T7 phage were intravenously injected into tumor-bearing mice, and allowed to circulate for 15 min. The mice were perfused through the heart with PBS containing 1% BSA and tissues were harvested for immunofluorescence.

PPC1 cells = assay: Phage internalization assay in PPC1 cells; type: cell-based, human
Text: Mice were maintained in accordance with institutional guidelines and the animal experiments were approved by the Animal Research Committees at University of California, Santa Barbara and San Francisco. transgenic tumor mice (Bardeesy and DePinho, (2002); Arbeit et al., Progressive squamous epithelial neoplasia in K14-human papillomavirus type 16 transgenic mice. J. Virol. 68, 4358-4368 (1994); Hanahan, Heritable formation of pancreatic β-cell tumors in transgenic mice expressing recombinant insulin/simian virus 40 oncogenes. Nature 315, 115-122 (1985)) and xenograft tumors generated by injecting BALB/c nude mice (Harlan Sprague Dawley, Indianapolis, Ind.) with 10^6 human cancer cells orthotopically, intracardiacly or into the brain and tibia were used. […] Phage homing studies in vivo and cell binding studies in vitro (Zhang et al., (2006)), immunofluorescence (Karmali et al. (2008)) and flow cytometry (Sugahara et al., Hyaluronan oligosaccharides induce CD44 cleavage and promote cell migration in CD44-expressing tumor cells. J. Biol. Chem. 278, 32259-32265 (2003)) were done as described. Whole body imaging was performed 3 hrs after injecting the Cy7-labelled micelles with the Odyssey Infrared Imaging System (LI-COR Biosciences, Lincoln, Nebr.). […] FAM-labeled peptides in tissues were quantified by measuring the fluorescence with Image J software. […]

tumors [2] = conditions: mouse, in vivo
Protocol: as §1, §2

Compound: FITC-LyP-1: FITC conjugated LyP-1 peptide ({FITC}-CGNKRTRGC; disulfide 1-9 (inferred); not fully specified (C-terminus))
- FITC-peptide binding to cells after gC1qR/p32 siRNA versus control siRNA (MDA-MB-435 cells): reduction in the binding

Compound: D(KLAKLAK)2
- mitochondrial swelling (mitochondrial membranes): marked mitochondrial swelling

Compound: RGD-4C: RGD peptide (SEQ ID NO:41) with strong affinity for αv integrins (RGDCCCC; homing peptide)
- distribution within tumor (confocal microscopy) (tumors [1]): accumulated only in and around tumor blood vessels
- phage internalization within PPC1 cells (PPC1 cells): nor did they internalize

- tumor homing over a control peptide (tumors [2]): 12 fold
Compound: N=C(N)NCCC[C@@H]1NC(=O)[C@@H](N)CSSC[C@@H](C(=O)O)NC(=O)[C@H](CC(=O)O)NC(=O)[C@@H]2CCCN2C(=O)CNC(=O)[C@H](CCCCN)NC(=O)[C@H](CC(=O)O)NC(=O)CNC1=O [iRGD]
